Data on two molecules can be found in patent US12358896B2, “LRRK2 inhibitors and methods of making and using thereof” (DENALI THERAPEUTICS INC., priority 2019, dated 2025).

Broadly, the efflux ratio is a quotient of directional permeabilities that is used to spot active efflux. By IC50 is commonly meant the concentration needed to halve the response being measured. A higher IC50 goes with lower potency.

One series addresses T1, MDR1 (P-glycoprotein) (Homo sapiens, UniProt P08183).
T1 construct: expressed in transfected cells; host or cells: MDR1-MDCK cells
The experiment in a line: MDR1-MDCK permeability / efflux (Biological Example 3). Type of series: in vitro ADME. The conditions noted are these: MDR1-MDCK cells, pH 7.4; for efflux ratio at 1 μM: dog. On the procedure: The blood brain barrier (BBB) separates circulating blood from the extracellular fluid of the central nervous system (CNS). The passive membrane permeability (Papp) and MDR1 (P-glycoprotein) substrate efflux potential are determined using the MDR1-MDCK cell line as an in vitro model of the effective permeability of a compound through the BBB. A bidirectional assay was conducted in pre-plated MDR1-MDCK cells using a 12 or 96-well plate in the absence or presence of MDR1 inhibitor (GF120918 or Valspodar). Assays were run in duplicate in transport buffer (HBSS, pH 7.4) for 90 or 120 min (minutes) at 37° C., using a test article concentration of 1 μM. Monolayer integrity was confirmed using Lucifer yellow, and appropriate positive controls for passive permeability and MDR1 transport were included in each experiment. Following incubation, samples from donor and receiver compartments are removed and quenched with acetonitrile containing an appropriate internal standard (IS). Protein was precipitated by centrifugation for 10 min at 3220 g, and supernatants diluted in ultra-pure water (if necessary) prior to analysis by LC-MS/MS using appropriate MRM transitions for analytes and IS. Papp (apparent permeability expressed in cm/sec [centimeter/second]) values were calculated according to the following equation:
[formula] where VR is the solution volume in the receiver chamber (apical or basolateral side), Area is the surface area for the insert membrane), Time is incubation time expressed in seconds, CR is the peak area ratio (analyte/IS) in the receiver chamber, CA is the average of the initial and final concentrations in the donor chamber, and Co is the initial peak area ratio in the donor chamber. Papp was determined in both the apical to basolateral (A→B) and basolateral to apical (B→A) directions.
Monolayer efflux ratios (ER) were derived using the following equation: […]
Compounds with an MDR1-MDCK efflux ratio above 20 are not expected to cross the blood brain barrier.

Another series addresses LRRK2 G2019S enzyme (Homo sapiens, UniProt Q5S007, G2019S). In words: LRRK2 G2019S TR-FRET biochemical assay (Biological Example 1). The conditions noted are these: 134 μM ATP, 5 nM LRRK2, LRRKtide substrate. The procedure: • LRRK2 G2019S enzyme • Substrate (LRRKtide) • ATP • TR-FRET dilution buffer • pLRRKtide antibody • 384-well assay plate • DMSO Enzyme Reaction Conditions • 50 mM Tris pH 7.5, 10 mM MgCl2, 1 mM EGTA, 0.01% Brij-35, 2 mM DTT • 5 nM LRRK2 • 134 μM ATP • 60 minute reaction time • 23° C. reaction temperature • 10 μL total reaction volume Detection Reaction Conditions • 1×TR-FRET dilution buffer • 10 mM EDTA • 2 nM antibody • 23° C. reaction temperature • 10 μL total reaction volume
Compounds are prepared by initially diluting to 1 mM with DMSO. 35 μL of reference compound solution, 35 μL of test compound solution, and 35 μL HPE are successively added to the source plate (384-well assay plate, Labcyte). The plates are centrifuged at 2500 rpm for 1 minute and sealed in foil. POD is used to perform a 3.162 fold serial dilution and 100 nL of reference compound solution, test compound solution, HPE and ZPE are transferred to assay plates. The assay plate is centrifuged at 2500 rpm for 1 minute, and sealed with foil.
To perform the enzyme reaction, 5 μL of LRRKtide substrate and kinase mixture in assay buffer is added to all wells of the assay plate. The plate is centrifuged to concentrate the mixture at the bottom of the wells. The assay plate is incubated at 23° C. for 20 minutes. Following incubation, 5 μL of 2×ATP in assay buffer is added to each well, and plates are centrifuged to concentrate the mixture at the bottom of the wells. The plate is incubated at 23° C. for 60 minutes.
To perform the detection of the reaction, EDTA completely mixed in TR-FRET dilution buffer is added to antibody reagent. 10 μL of detection reagent is added to all wells of each well of the assay plate and the plate is centrifuged to concentrate the mixture at the bottom of the wells. The plate is then incubated at 23° C. for 60 minutes. Plates are read on Perkin Elmer Envision 2104 instrument in TR-FRET mode using a 340 nm excitation filter, 520 nm fluorescence emission filter, and 490 or 495 nm terbium emission filter.

T1 sequence (P08183 whole entry): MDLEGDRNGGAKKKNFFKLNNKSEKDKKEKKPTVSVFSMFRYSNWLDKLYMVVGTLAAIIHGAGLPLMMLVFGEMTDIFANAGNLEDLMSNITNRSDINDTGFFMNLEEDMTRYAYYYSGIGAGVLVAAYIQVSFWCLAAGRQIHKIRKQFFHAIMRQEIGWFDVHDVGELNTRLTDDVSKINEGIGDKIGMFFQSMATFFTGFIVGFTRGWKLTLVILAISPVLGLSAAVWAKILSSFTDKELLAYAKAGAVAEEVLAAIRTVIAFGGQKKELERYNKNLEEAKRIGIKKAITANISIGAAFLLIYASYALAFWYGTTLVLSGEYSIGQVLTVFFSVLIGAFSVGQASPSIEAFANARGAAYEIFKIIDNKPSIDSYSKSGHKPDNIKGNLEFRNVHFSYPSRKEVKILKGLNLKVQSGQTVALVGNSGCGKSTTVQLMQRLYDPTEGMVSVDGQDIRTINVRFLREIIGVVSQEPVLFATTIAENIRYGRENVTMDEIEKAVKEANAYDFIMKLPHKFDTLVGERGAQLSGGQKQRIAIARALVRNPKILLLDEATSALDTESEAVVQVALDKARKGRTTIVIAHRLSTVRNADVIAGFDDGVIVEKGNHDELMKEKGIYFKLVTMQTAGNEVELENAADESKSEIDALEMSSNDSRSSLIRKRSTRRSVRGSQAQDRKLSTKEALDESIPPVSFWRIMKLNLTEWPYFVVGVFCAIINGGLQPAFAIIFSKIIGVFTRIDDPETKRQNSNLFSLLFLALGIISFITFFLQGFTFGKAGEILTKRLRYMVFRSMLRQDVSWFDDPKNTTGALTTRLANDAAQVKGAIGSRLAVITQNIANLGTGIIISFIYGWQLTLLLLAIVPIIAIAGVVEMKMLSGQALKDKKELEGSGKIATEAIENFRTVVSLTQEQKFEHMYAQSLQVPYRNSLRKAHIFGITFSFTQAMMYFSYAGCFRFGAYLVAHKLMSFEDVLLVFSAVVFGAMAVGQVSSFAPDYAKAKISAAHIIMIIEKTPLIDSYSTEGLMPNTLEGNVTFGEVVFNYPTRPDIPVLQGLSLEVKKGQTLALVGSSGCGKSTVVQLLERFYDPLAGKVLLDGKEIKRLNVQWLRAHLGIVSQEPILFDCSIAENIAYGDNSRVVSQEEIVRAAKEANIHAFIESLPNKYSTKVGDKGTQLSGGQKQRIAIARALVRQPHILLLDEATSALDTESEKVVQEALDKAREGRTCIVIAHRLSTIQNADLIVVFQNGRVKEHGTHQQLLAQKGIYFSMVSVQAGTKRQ
Chain of LRRK2 G2019S enzyme (Q5S007 whole entry G2019S): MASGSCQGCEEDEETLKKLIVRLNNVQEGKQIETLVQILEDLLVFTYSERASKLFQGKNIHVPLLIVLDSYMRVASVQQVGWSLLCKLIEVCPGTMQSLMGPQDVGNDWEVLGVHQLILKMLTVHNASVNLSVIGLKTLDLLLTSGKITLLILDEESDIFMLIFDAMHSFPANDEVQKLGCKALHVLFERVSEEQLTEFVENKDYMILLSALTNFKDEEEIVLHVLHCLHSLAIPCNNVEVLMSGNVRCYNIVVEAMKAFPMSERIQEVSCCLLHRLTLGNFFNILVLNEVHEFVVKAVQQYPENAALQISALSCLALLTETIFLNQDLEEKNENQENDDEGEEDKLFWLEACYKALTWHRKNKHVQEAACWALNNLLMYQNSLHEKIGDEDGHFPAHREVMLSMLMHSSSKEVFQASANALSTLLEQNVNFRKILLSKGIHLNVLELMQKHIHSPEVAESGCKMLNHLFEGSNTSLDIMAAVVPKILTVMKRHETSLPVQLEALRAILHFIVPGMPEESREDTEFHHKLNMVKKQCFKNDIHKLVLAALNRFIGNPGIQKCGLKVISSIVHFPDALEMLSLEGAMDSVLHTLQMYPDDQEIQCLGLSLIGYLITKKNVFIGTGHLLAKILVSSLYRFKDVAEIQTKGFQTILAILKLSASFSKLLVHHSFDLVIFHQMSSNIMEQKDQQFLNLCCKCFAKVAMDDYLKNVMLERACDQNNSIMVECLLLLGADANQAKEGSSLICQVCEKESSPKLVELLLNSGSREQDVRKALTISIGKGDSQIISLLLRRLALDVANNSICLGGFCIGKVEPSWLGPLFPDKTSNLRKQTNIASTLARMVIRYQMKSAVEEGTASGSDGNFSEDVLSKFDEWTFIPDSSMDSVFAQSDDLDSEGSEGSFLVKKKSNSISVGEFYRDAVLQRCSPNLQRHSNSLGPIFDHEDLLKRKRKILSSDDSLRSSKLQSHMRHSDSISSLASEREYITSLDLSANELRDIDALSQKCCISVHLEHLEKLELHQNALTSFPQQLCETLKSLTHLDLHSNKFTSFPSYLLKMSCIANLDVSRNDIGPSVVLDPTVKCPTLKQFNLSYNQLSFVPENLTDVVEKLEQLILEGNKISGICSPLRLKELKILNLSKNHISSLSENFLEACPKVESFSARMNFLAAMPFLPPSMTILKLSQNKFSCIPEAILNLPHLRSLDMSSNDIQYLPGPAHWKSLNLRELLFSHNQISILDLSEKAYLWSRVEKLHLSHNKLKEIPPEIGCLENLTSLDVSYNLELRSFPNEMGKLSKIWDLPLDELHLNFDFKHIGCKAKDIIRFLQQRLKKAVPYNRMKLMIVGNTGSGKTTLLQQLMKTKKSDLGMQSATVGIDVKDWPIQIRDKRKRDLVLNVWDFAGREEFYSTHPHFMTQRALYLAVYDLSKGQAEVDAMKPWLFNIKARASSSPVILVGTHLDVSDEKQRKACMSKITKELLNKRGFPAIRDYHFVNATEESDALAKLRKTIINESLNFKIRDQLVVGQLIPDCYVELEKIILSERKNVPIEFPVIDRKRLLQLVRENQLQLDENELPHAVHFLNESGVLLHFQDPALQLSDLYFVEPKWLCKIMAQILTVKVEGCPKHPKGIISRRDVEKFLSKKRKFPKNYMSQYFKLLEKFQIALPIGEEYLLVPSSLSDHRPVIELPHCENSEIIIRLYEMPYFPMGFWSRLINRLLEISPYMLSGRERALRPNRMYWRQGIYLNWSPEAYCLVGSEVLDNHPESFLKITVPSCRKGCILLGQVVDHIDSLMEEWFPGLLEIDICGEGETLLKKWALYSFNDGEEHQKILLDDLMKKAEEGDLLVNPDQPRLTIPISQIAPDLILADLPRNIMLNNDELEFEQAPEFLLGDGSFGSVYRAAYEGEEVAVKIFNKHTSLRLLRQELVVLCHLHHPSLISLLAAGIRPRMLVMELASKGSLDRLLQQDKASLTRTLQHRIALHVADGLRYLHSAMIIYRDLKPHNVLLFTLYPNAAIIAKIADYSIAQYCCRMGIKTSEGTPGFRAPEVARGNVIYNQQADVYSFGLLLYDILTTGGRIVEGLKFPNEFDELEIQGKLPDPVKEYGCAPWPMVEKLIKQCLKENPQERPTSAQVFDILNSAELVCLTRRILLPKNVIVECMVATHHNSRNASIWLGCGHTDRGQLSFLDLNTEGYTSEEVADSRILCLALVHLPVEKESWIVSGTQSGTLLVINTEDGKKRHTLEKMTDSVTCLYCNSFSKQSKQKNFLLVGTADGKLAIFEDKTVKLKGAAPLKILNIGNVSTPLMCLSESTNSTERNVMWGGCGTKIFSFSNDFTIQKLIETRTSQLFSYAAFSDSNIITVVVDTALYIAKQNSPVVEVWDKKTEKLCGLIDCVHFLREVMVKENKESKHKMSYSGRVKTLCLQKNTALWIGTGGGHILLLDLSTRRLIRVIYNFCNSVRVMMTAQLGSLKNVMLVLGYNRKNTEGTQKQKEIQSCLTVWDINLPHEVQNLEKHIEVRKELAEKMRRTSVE

With `CCNc1nc(Nc2cn([C@H]3C[C@H]3C(N)=O)nc2C2CC2)ncc1C(F)(F)F` (single isomer, unassigned) [Example 7, (1,2-cis)-2-(3-cyclopropyl-4-((4-(ethylamino)-5-(trifluoromethyl)pyrimidin-2-yl)amino)-1H-pyrazol-1-yl)cyclopropanecarboxamide], at MDR1 (P-glycoprotein), the efflux ratio at 1 μM stood at 110. Also, on MDR1 (P-glycoprotein) (efflux ratio, 1 μM), the “MDCK-MDR1 Efflux Avg” value is recorded as 110. This molecule also had an IC50 at LRRK2 G2019S enzyme of 1.47 nM.

In the case of `CCNc1nc(Nc2cc([C@H]3C[C@H]3C(N)=O)nn2C2CC2)ncc1C(F)(F)F` [Comparative Example A, reference compound], the efflux ratio at 1 μM at MDR1 (P-glycoprotein) was 144. For the same molecule, the IC50 on LRRK2 G2019S enzyme stood at 1.41 nM.
